{"source": "patent US4628089A", "about": "“Pyrido(2,3-D)pyrimidines” (Southern Research Institute, priority 1985, dated 1986)", "key": {"[1]": {"test_system": "mammalian dihydrofolate reductase", "details": "Grivsky et al., J. Med. Chem., 23, 327 (1980); cited from earlier work"}, "hypertensive rat": {"test_system": "hypertensive rat", "details": "L. R. Bennett et al, J. Med. Chem., 24, 382 (1981); cited from earlier work"}, "thymidylate synthetase": {"test_system": "thymidylate synthetase", "details": "background; cited from earlier work"}, "[2]": {"test_system": "lymphocytic leukemia P388", "test": "Activity against lymphocytic leukemia P388 in mice", "assay_type": "in vivo, mouse (CDF1 mice)", "details": "ip, qd 1-5 days, 10^6 P388 cells ip, CDF1 mice"}, "[3]": {"test_system": "Human epidermoid carcinoma cell No. 2", "test": "Cell culture cytotoxicity, inhibition of colony formation after 12 days", "assay_type": "cell-based", "details": "288 h, colony formation after 12 days in plastic flask, read-out: ED50 (concentration inhibiting colony formation by 50%)", "description": "^a Human epidermoid carcinoma cell No. 2.\n^c Concentrations inhibiting colony formation by 50% after 12 days as\ndetermined in plastic flask."}, "dihydrofolate reductase": {"test_system": "dihydrofolate reductase", "details": "background; cited from earlier work"}}, "data": [{"compound": "COc1ccc(OC)c(Cc2cnc3nc(N)nc(N)c3c2C)c1", "values": [{"measurement": "inhibition of mammalian dihydrofolate reductase", "setting": "[1]", "result": "potent lipid-soluble inhibitor of mammalian dihydrofolate reductase"}]}, {"compound": "Cc1ncc2cc(-c3c(Cl)cccc3Cl)c(N)nc2n1", "values": [{"measurement": "blood pressure in the hypertensive rat", "setting": "hypertensive rat", "result": "lowered blood pressure"}]}, {"compound": "C#CCN(Cc1ccc2nc(N)nc(O)c2c1)c1ccc(C(=O)N[C@@H](CCC(=O)O)C(=O)O)cc1", "note": "[5,8-dideaza-10-propargylfolic acid, N-[4-[N-[(2-amino-4-hydroxy-6-quinazolinyl)methyl]prop-2-ynylamino]benzoyl]-L-glutamic acid]", "values": [{"measurement": "inhibition of thymidylate synthetase", "setting": "thymidylate synthetase", "result": "potent inhibitor of thymidylate synthetase"}]}, {"compound": "CN(Cc1cnc2nc(N)[nH]c(=O)c2c1)c1ccc(C(=O)N[C@@H](CCC(=O)O)C(=O)O)cc1", "note": "[I (R = CH3), N-[4[[(2-amino-4(3H)-oxopyrido[2,3-d]-pyrimidin-6-yl)methyl]methylamino]benzoyl]-L-glutamic acid]", "values": [{"measurement": "% ILS", "setting": "[2]; 200 mg/kg", "result": 11, "unit": "%"}, {"measurement": "IC50", "setting": "[3]", "result": 11200, "unit": "nM"}]}, {"compound": "Nc1nc2ncc(CNc3ccc(C(=O)N[C@@H](CCC(=O)O)C(=O)O)cc3)cc2c(=O)[nH]1", "note": "[I (R = H), N-[4-[(2-Amino-4(3H)-oxopyrido[2,3-d]pyrimidin-6-yl)methylamino]benzoyl]-L-glutamic Acid]", "values": [{"measurement": "% ILS", "setting": "[2]; 100 mg/kg", "result": 17, "unit": "%"}, {"measurement": "IC50", "setting": "[3]", "result": 6100, "unit": "nM"}]}, {"compound": "CN(Cc1cnc2nc(N)nc(N)c2c1)c1ccc(C(=O)N[C@@H](CCC(=O)O)C(=O)O)cc1", "note": "[II (R = CH3), N-[4-[[(2,4-Diaminopyrido[2,3-d]pyrimidine-6-yl)methyl]methylamino]benzoyl]-L-glutamic acid]", "values": [{"measurement": "30th day survivor", "setting": "[2]; 4 mg/kg", "result": "One"}, {"measurement": "% ILS", "setting": "[2]; 4 mg/kg", "result": 92, "unit": "%"}, {"measurement": "IC50", "setting": "[3]", "result": 4, "unit": "nM"}]}, {"compound": "Nc1nc(N)c2cc(CNc3ccc(C(=O)N[C@@H](CCC(=O)O)C(=O)O)cc3)cnc2n1", "note": "[II (R = H), N-[4-[(2,4-Diaminopyrido[2,3-d]pyrimidine-6-yl)methylamino]benzoyl]-L-glutamic acid]", "values": [{"measurement": "IC50", "setting": "[3]", "result": 13, "unit": "nM"}]}, {"compound": "CN(Cc1cnc2nc(N)nc(N)c2n1)c1ccc(C(=O)N[C@@H](CCC(=O)O)C(=O)O)cc1", "note": "[Methotrexate, reference compound]", "values": [{"measurement": "inhibition of dihydrofolate reductase", "setting": "dihydrofolate reductase", "result": "Powerful dihydrofolate reductase inhibitors"}, {"measurement": "IC50", "setting": "[3]", "result": 1, "unit": "nM"}]}, {"compound": "CCOC(=O)CC[C@H](NC(=O)c1ccc(NCc2cnc3nc(N)nc(N)c3c2)cc1)C(=O)OCC", "note": "[VII (R = H; R1 = C2 H5), Diethyl N-[4-[(2,4-diaminopyrido[2,3-d]pyrimidine-6-yl)methylamino]benzoyl]-L-glutamate]", "values": [{"measurement": "% ILS", "setting": "[2]; 1 mg/kg", "result": 118, "unit": "%"}, {"measurement": "IC50", "setting": "[3]", "result": 52, "unit": "nM"}]}]}
